18 molecules from paper PMC3335202 (Journal of Medicinal Chemistry, 2012) can be followed below.

Assay [1] concerns Human embryonic stem cell H9 lines carrying MYH6-mCherry reporters. As to the kind of experiment: hESC cardiogenesis assay. The format is cell-based. The settings on record: for induction of cardiogenesis (class in words): dose-response behaviour.
In assay [2] the test system is β-catenin-dependent canonical Wnt pathway. As to the kind of experiment: Wnt inhibition assay. The format is cell-based, human.

In the case of `O=C(Nc1cccc2cccnc12)c1ccc(N2C(=O)[C@@H]3[C@@H]4CC[C@@H](C4)[C@@H]3C2=O)cc1` [Compound 9, 4-(cis-endo-1,3-Dioxooctahydro-2H-4,7-methanoisoindol-2-yl)-N-(quinolin-8-yl)benzamide], in assay [1] (hESCs), the “induction of cardiogenesis (class in words)” value (shortened to “induction of cardiogenesis”) is on record as “dose-dependent induction of cardiogenesis functional activity”.
As to `O=C1[C@@H]2[C@@H]3CC[C@@H](C3)[C@@H]2C(=O)N1[C@H]1CC[C@H](C(=O)Nc2cccc3cccnc23)CC1` [Compound 10, 4-(cis-endo-1,3-Dioxooctahydro-2H-4,7-methanoisoindol-2-yl)-N-(quinolin-8-yl)-trans-cyclohexyl carboxamide], the Emax in assay [1] (Homo sapiens, Embryonic stem cell, read-out: % cardiogenesis) was 145%. The “induction of cardiogenesis” value in assay [1] (hESCs) is “potent stimulators of cardiogenesis”.
Take `O=C1[C@@H]2[C@@H]3CC[C@@H](C3)[C@@H]2C(=O)N1[C@H]1CC[C@@H](C(=O)Nc2cccc3cccnc23)CC1` [Compound 11, 4-(cis-endo-1,3-Dioxooctahydro-2H-4,7-methanoisoindol-2-yl)-N-(quinolin-8-yl)-cis-cyclohexyl carboxamide]: the “induction of cardiogenesis” value in assay [1] (hESCs) was “dose-dependent induction of cardiogenesis functional activity”.
For the molecule `O=C(Nc1cccc2ccccc12)c1ccc(N2C(=O)[C@@H]3[C@@H]4CC[C@@H](C4)[C@@H]3C2=O)cc1` [Compound 12, 4-(cis-endo-1,3-Dioxooctahydro-2H-4,7-methanoisoindol-2-yl)-N-(naphtalen-1-yl) benzamide], the “induction of cardiogenesis” value in assay [1] (hESCs) is “functionally inactive as inducers of cardiogenesis”.
Take `O=C1[C@@H]2[C@@H]3CC[C@@H](C3)[C@@H]2C(=O)N1[C@H]1CC[C@H](C(=O)Nc2nccc3ccccc23)CC1` [Compound 13, 4-(cis-endo-1,3-Dioxooctahydro-2H-4,7-methanoisoindol-2-yl)-N-(isoquinolin-1-yl)-trans-cyclohexylcarboxamide]: in assay [1] (hESCs), the “induction of cardiogenesis” value is on record as “dose-dependent induction of cardiogenesis functional activity”.
`O=C1[C@@H]2[C@@H]3CC[C@@H](C3)[C@@H]2C(=O)N1[C@H]1CC[C@H](C(=O)Nc2cncc3ccccc23)CC1` [Compound 14, 4-(cis-endo-1,3-Dioxooctahydro-2H-4,7-methanoisoindol-2-yl)-N-(isoquinolin-4-yl)-trans-cyclohexylcarboxamide]: in assay [1] (hESCs), the “induction of cardiogenesis” value is “dose-dependent induction of cardiogenesis functional activity”.
For `O=C1[C@@H]2[C@@H]3CC[C@@H](C3)[C@@H]2C(=O)N1[C@H]1CC[C@H](C(=O)Nc2cccc3ccncc23)CC1` [Compound 18, 4-(cis-endo-1,3-Dioxooctahydro-2H-4,7-methanoisoindol-2-yl)-N-(isoquinolin-8-yl)-trans-cyclohexylcarboxamide], the “Z score at 625 nM” value in assay [1] (cardiogenesis, relative to DMSO control, 625 nM) is “negative”. In addition, the “induction of cardiogenesis” value in assay [1] (hESCs) was “dose-dependent induction of cardiogenesis functional activity”.
On to `COC(=O)c1ccccc1NC(=O)[C@H]1CC[C@H](N2C(=O)[C@@H]3[C@@H]4CC[C@@H](C4)[C@@H]3C2=O)CC1` [Compound 27], for which the “induction of cardiogenesis” value in assay [1] (hESCs) is “dose-dependent induction of cardiogenesis functional activity”.
Turning to `O=C1CCCc2cccc(NC(=O)[C@H]3CC[C@H](N4C(=O)[C@@H]5[C@@H]6CC[C@@H](C6)[C@@H]5C4=O)CC3)c21` [Compound 29, 4-(cis-endo-(1,3-Dioxooctahydro-2H-4,7-methanoisoindol-2-yl))-N-(8-oxo-5,6,7,8-tetrahydronaphthalen-1-yl)-trans-cyclohexylcarboxamide], in assay [1] (hESCs), the “concentration giving maximum percent cardiogenesis” value is recorded as 150 nM and the “induction of cardiogenesis” value is reported as “potent stimulators of cardiogenesis”. The “fold greater cardiogenic potency (lower concentration) compared to 1” value in assay [1] (ratio of concentrations for maximum cardiogenesis) came out at 30 fold.
For the molecule `O=C1c2ccccc2-c2cccc(NC(=O)[C@H]3CC[C@H](N4C(=O)[C@@H]5[C@@H]6CC[C@@H](C6)[C@@H]5C4=O)CC3)c21` [Compound 30, 4-(cis-endo-(1,3-Dioxooctahydro-2H-4,7-methanoisoindol-2-yl))-N-(9H-fluoren-9-on-1-yl)-trans-cyclohexylcarboxamide], in assay [1] (hESCs), the “induction of cardiogenesis” value is listed as “dose-dependent induction of cardiogenesis functional activity”.
In general, IC50 refers to the concentration that inhibits the measured activity by half. A low value points to greater potency in that assay. As to `O=C1[C@@H]2[C@@H]3CC[C@@H](C3)[C@@H]2C(=O)N1[C@H]1CC[C@H](C(=O)Nc2ccccn2)CC1` [Compound 31, 4-(cis-endo-(1,3-Dioxooctahydro-2H-4,7-methanoisoindol-2-yl))-N-(pyridin-2-yl)-trans-cyclohexyl carboxamide], in assay [1] (hESCs), the “induction of cardiogenesis” value was “functionally inactive as inducers of cardiogenesis”. In addition, the IC50 in assay [2] (Homo sapiens, HEK-293T, Wnt inhibition, HEK293T cells) was approximately 100 nM.
On to `CC(=O)c1ncccc1NC(=O)[C@H]1CC[C@H](N2C(=O)[C@@H]3[C@@H]4CC[C@@H](C4)[C@@H]3C2=O)CC1` [Compound 34, 4-(cis-endo-(1,3-Dioxooctahydro-2H-4,7-methanoisoindol-2-yl))-N-(2-acetyl-pyridin-3-yl)-trans-cyclohexylcarboxamide], for which the “induction of cardiogenesis” value in assay [1] (hESCs) was “potent stimulators of cardiogenesis”.
On the same count and under the same terms, as for `CC(=O)c1ccc(NC(=O)[C@H]2CC[C@H](N3C(=O)[C@@H]4[C@@H]5CC[C@@H](C5)[C@@H]4C3=O)CC2)cn1` [Compound 35, 4-(cis-endo-(1,3-Dioxooctahydro-2H-4,7-methanoisoindol-2-yl))-N-(6-acetyl-pyridin-3-yl)-trans-cyclohexylcarboxamide], the entry is “functionally inactive as inducers of cardiogenesis”.
As for `O=C(Nc1cccc2cccnc12)c1ccc(N2C(=O)[C@@H]3[C@H](C2=O)[C@@H]2C=C[C@H]3CC2)cc1` [Compound 36, 4-cis-endo-(3a,4,7,7a-Tetrahydro-1H-4,7-ethanoisoindole-1,3(2H)-dion-2-yl)-N-(quinolin-8-yl) benzamide], in assay [2] (compared with the well-tolerated parent (9/1)), the “fold less potent in Wnt inhibition” value was more than 10 fold.
As for `COc1cc(Br)ccc1NC(=O)[C@H]1CC[C@H](N2C(=O)[C@@H]3[C@@H]4CC[C@@H](C4)[C@@H]3C2=O)CC1` [Compound 53, 4-(cis-endo-1,3-Dioxooctahydro-2H-4,7-methanoisoindol-2-yl)-N-(4-bromo-2-methoxyphenyl)-trans-cyclohexylcarboxamide], the “induction of cardiogenesis” value in assay [1] (hESCs) is listed as “dose-dependent induction of cardiogenesis functional activity”.
As to `O=C1[C@@H]2[C@@H]3CC[C@@H](C3)[C@@H]2C(=O)N1[C@H]1CC[C@H](C(=O)Nc2cncc(O)c2)CC1` [Compound 54, 4-(cis-endo-1,3-Dioxooctahydro-2H-4,7-methanoisoindol-2-yl)-N-(5-hydroxyl-pyridin-3-yl)-trans-cyclohexylcarboxamide], the “induction of cardiogenesis” value in assay [1] (hESCs) is reported as “dose-dependent induction of cardiogenesis functional activity”.
On the same count and under the same terms, as for `O=C1[C@@H]2[C@@H]3CC[C@@H](C3)[C@@H]2C(=O)N1[C@H]1CC[C@H](C(=O)Nc2cccnc2Cl)CC1` [Compound 55, 4-(cis-endo-1,3-Dioxooctahydro-2H-4,7-methanoisoindol-2-yl)-N-(2-chloropyridin-3-yl)-trans-cyclohexylcarboxamide], the entry is “dose-dependent induction of cardiogenesis functional activity”; as for `CC(=O)c1ccccc1NC(=O)[C@H]1CC[C@@H](N2C(=O)[C@@H]3[C@@H]4CC[C@@H](C4)[C@@H]3C2=O)CC1` [Compound 56, 4-(cis-endo-1,3-Dioxooctahydro-2H-4,7-methanoisoindol-2-yl)-N-(2-acetylphenyl)-cis-cyclohexyl carboxamide], “dose-dependent induction of cardiogenesis functional activity”.
